From patent US11679110B2, “Methods of treating disorders using CSF1R inhibitors” (Deciphera Pharmaceuticals, LLC, priority 2018, dated 2023)

What was measured:
[1] = test system: CD11b+/F4/80+ intratumoral macrophages; test: Syngeneic MC38 mouse model of colorectal cancer, tumor-associated macrophages by flow cytometry, 7 days of treatment; assay type: in vivo; conditions: MC38 mice, seven days
Method: The protocol and procedures involving the care and use of animals in the syngeneic MC38 mouse xenograft models below were reviewed and approved by the Institutional Animal Care and Use Committee (IACUC) of CrownBio (Taicang Jiangsu Province, China) prior to conduct. During the study, the care and use of animals was conducted in accordance with the regulations of the Association for Assessment and Accreditation of Laboratory Animal Care (AAALAC). All mice had food and water ad libitum. […] In the first experiment, six- to eight-week old female C57BL/6 mice were inoculated subcutaneously in the right lower flank with one million MC38 tumor cells in Phosphate Buffered Saline. […] Tumor volume and body weight were measured thrice weekly. Tumor burden (mg) was estimated from caliper measurements by the formula: tumor burden (mg=mm^3)=(length×width^2)/2. Tumors were collected at 2 hours post the 7th dose on day 18 and freshly processed to assess infiltrating tumor-associated macrophages by flow cytometry using antibodies to CD11b+, F4/80, and CD45+. First, tumors were washed in phosphate-buffered saline and treated with collagenase and DNase. After treatment, cells were repeatedly passed through a 70 μm cell strainer. Cells were further washed, resuspended in red blood cell lysing buffer, then washed again. […]

[2] = in vivo; conditions: Sprague-Dawley, rat

SMILES: Cc1nc(-c2cnc(NC(C)C)n(C)c2=O)ccc1Oc1ccnc(-c2cnn(C)c2)c1 [Compound 1, 2-(isopropylamino)-3-methyl-5-(6-methyl-5-((2-(1-methyl-1H-pyrazol-4-yl)pyridin-4-yl)oxy)pyridin-2-yl)pyrimidin-4(3H)-one]
- reduction in CD11b+/F4/80+ intratumoral macrophages (as a percent of CD45+ cells in the tumor) ([1]; 5, 10, 15 mg/kg QD oral): dose-dependent reduction
- reduction of intratumoral macrophages (as a percent of CD45+ cells in the tumor) ([1]; high dose (15 mg/kg QD oral)): ~67%
- NOAEL at 4 weeks [2]: 5 mg/kg/day
